The subject of experiment [1] is crabgrass. As to the kind of experiment: Test A crabgrass. In kind it is in vivo, Digitaria spp. Conditions: 0 to 10 scale where 0 is no effect and 10 is complete control. Here is the method: Seeds of barnyardgrass (Echinochloa crus-galli), crabgrass (Digitaria spp.), morningglory (Ipomoea spp.), and velvetleaf (Abutilon theophrasti) were planted into a sandy loam soil and treated preemergence by soil drench with test chemicals formulated in a non-phytotoxic solvent mixture which includes a surfactant At the same time, these crop and weed species were also treated postemergence sprayed to runoff, with test chemicals formulated in the same manner.
Plants ranged in height from two to eighteen cm and were in the one to two leaf stage for the postemergence treatment. Treated plants and untreated controls were maintained in a greenhouse for approximately eleven days, after which all treated plants were compared to untreated controls and visually evaluated for injury. Plant response ratings, summarized in Table A, are based on a 0 to 10 scale where 0 is no effect and 10 is complete control.

Experiment [2] relates to giant foxtail. As to the kind of experiment: Test C postemergence giant foxtail. Conditions: 0 to 100 scale, 0 no effect, 100 complete control. In kind it is in vivo, Setaria faberii. As for the experimental part: (§1) Compounds evaluated in this test were formulated in a non-phytotoxic solvent mixture which included a surfactant and applied to plants that were grown for various periods of time before treatment (postemergence application). A mixture of sandy loam soil and greenhouse potting mix in a 60:40 ratio was used for the postemergence test.
(§2) Plantings of these crops and weed species were adjusted to produce plants of appropriate size for the postemergence test. All plant species were grown using normal greenhouse practices. Crop and weed species include arrowleaf sida (Sida rhombifolia), barnyardgrass (Echinochloa crus-galli), cocklebur (Xanthium strumarium), common ragweed (Ambrosia elatior), corn (Zea mays), cotton (Gossypium hirsutum), eastern black nightshade (Solanum ptycanthum), fall panicum (Panicum dichotomiflorum), field bindweed (Convolvulus arvensis), giant foxtail (Setaria faberii), hairy beggarticks (Bidens pilosa), ivyleaf morningglory (Ipomoea hederacea), johnsongrass (Sorghum halepense), ladysthumb smartweed (Polygonum persicaria), lambsquarters (Chenopodium album), large crabgrass (Digitaria sanguinalis), purple nutsedge (Cyperus rotundus), redroot pigweed (Amaranthus retroflexus), soybean (Glycine max), surinam grass (Brachiaria decumbens), velvetleaf (Abutilon theophrasti) and wild poinsettia (Euphorbia heterophylla).
(§3) Treated plants and untreated controls were maintained in a greenhouse for approximately 14, to 21 days, after which all treated plants were compared to untreated controls and visually evaluated. Plant response ratings, summarized in Table C, were based upon a 0 to 100 scale where 0 was no effect and 100 was complete control. A dash response (−) means no test result.

Experiment [3] relates to downy brome. As to the kind of experiment: Test E downy brome. In kind it is in vivo, Bromus tectorum. Conditions: Postemergence; for Plant response rating, Downy brome: 0 to 100 scale. Here is the method:
(§4) Compounds evaluated in this test were formulated in a non-phytotoxic solvent mixture which included a surfactant and applied to plants that were in the 1- to 4-leaf stage (postemergence application). A mixture of sandy loam soil and greenhouse potting mix in a 60:40 ratio was used for the postemergence test.
(§5) Plantings of these crops and weed species were adjusted to produce plants of appropriate size for the postemergence test. All plant species were grown using normal greenhouse practices. Crop and weed species include annual bluegrass (Poa annua), blackgrass (Alopecurus myosuroides), black nightshade (Solanum nigra), chickweed (Stellaria media), common poppy (Papaver rhoeas), deadnettle (Lamium amplexicaule), downy brome (Bromus tectorum), field violet (Viola arvensis), galium (Galium aparine), green foxtail (Setaria viridis), Italian ryegrass (Lolium multiflorum), jointed goatgrass (Aegilops cylindrica), kochia (Kochia scoparia), lambsquarters (Chenopodium album), littleseed canarygrass (Phalaris minor), rape (Brassica napus), redroot pigweed (Amaranthus retroflexus), Russian thistle (Salsola kali), scentless chamomile (Matricaria inodora), spring barley (Hordeum vulgare), sugar beet (Beta vulgaris), sunflower (Helianthus annuus), ivyleaf speedwell (Veronica hederaefolia), spring wheat (Triticum aestivum), winter wheat (Triticum aestivum), wild buckwheat (Polygonum convolvulus), wild mustard (Sinapis arvensis), wild oat (Avena fatua), windgrass (Apera spica-venti) and winter barley (Hordeum vulgare).
(§6) Treated plants and untreated controls were maintained in a greenhouse for approximately 21 to 28 days, after which all treated plants were compared to untreated controls and visually evaluated. […] A dash response (-) means no test result.

Experiment [4] relates to spring barley. Description: Test E spring barley. In kind it is in vivo, Hordeum vulgare. Conditions: Postemergence. Here is the method:
as §4, §5, §6

Experiment [5] relates to annual bluegrass. As to the kind of experiment: Test E annual bluegrass. In kind it is in vivo, Poa annua. Conditions: Preemergence.
Experiment [6] deals with ivyleaf speedwell. Description: Test E postemergence ivyleaf speedwell. In kind it is in vivo, Veronica hederaefolia. Here is the method: as §4, §5, §6
The test system of experiment [7] is soybean. Description: Test C postemergence soybean. In kind it is in vivo, Glycine max. The following applies: 0 to 100 scale, 0 no effect, 100 complete control. In short, it runs like this:
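In this greenhouse assay, treated and untreated plants were kept for approximately 14 to 21 days following postemergence application, then rated by eye on a scale from 0 (no effect) to 100 (complete control).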

Experiment [8] deals with velvetleaf. As to the kind of experiment: Test C postemergence velvetleaf. In kind it is in vivo, Abutilon theophrasti. Conditions: 0 to 100 scale, 0 no effect, 100 complete control. Here is the method:
as §1, §2, §3

Experiment [9] deals with sourgrass. Description: Test D sourgrass. In kind it is in vivo, Trichachne insularis. The following applies: Preemergence, 0 to 100 scale, 0 no injury, 100 complete control. In short, it runs like this: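 Seeds were sown in greenhouse pots, one species per pot or compartment. Compounds were in a non-phytotoxic solvent mixture with surfactant; preemergence applications went on the sandy loam surface within one day of planting. Injury was rated visually after 14 to 21 days, 0 (none) to 100 (complete control).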

The subject of experiment [10] is Russian thistle. As to the kind of experiment: Test E Russian thistle. Conditions: Postemergence. In kind it is in vivo, Salsola kali. In short, it runs like this:
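For postemergence, application to 1- to 4-leaf plants growing in a 60:40 sandy loam–potting mix substrate. Formulation: non-phytotoxic solvent mixture plus surfactant. Untreated controls served as the reference for the visual rating after ~21–28 days.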

The mark [11] stands for this setting: Rate 500 g/ha, 0 no effect, 100 complete control.
The mark [12] stands for this setting: Rate 250 g/ha, 0 to 100 scale where 0 is no effect and 100 is complete control.
Where [13] appears, read: Rate 500 g/ha, 0 to 100 scale, 0 no effect, 100 complete control.
[14] abbreviates: Rate 125 g/ha, 0 to 100 scale (0 no effect, 100 complete control).
Where [15] appears, read: Rate 500 g/ha, 0 to 100 scale where 0 is no effect and 100 is complete control.
The mark [16] stands for this setting: Rate 250 g/ha, 0 to 100 scale (0 no effect, 100 complete control).

Each structure is given as a SMILES string.

For `CCc1cccc(C)c1-n1c(=O)on(C(=O)N(c2ccc(F)cc2)C(C)C)c1=O` [Compound 52], the “Plant response rating, Crabgrass” value in [1] (Postemergence, Rate 1000 g/ha) stood at 8; in experiment [1] (Pre-emergence, Rate 2000 g/ha), 10.
`CC(C)N(C(=O)n1oc(=O)n(C(C)C)c1=O)c1ccc(F)cc1` [Compound 131]: the “Plant response rating, Giant foxtail” value in experiment [2] (Rate 140 g/ha) was 10; in experiment [2] (Rate 280 g/ha) it was 40; in experiment [2] (Rate 560 g/ha), 60; in experiment [2] (Rate 1120 g/ha), 80. Besides, the results for the “Plant response rating, Downy brome” value in [3] (Rate 62 g/ha), in [3] (Rate 125 g/ha) and in experiment [3] (setting [11]) were 55, 0 and 70, respectively. Also, in experiment [3] (setting [12]), the “Downy brome plant response rating” value is listed as 50. The “Plant response rating, Spring Barley” value in experiment [4] (Rate 62 g/ha, 0 to 100 scale) worked out at 5; in [4] (Rate 125 g/ha, 0 to 100 scale), 0; in experiment [4] (setting [13]), 20. In addition, in experiment [4] (setting [12]), the “Spring Barley plant response rating” value is listed as 0. Moreover, the “Plant response rating, Annual bluegras” value in [5] (setting [14]) stood at 70; in experiment [5] (setting [15]) it was 100. For the same compound, the “Annual bluegras plant response rating (0 to 100 scale)” value in experiment [5] (Rate 250 g/ha) came to 80. Moreover, the “Plant response rating, Veronica hedera” value turned out to be 0 in [6] (Rate 125 g/ha, 0 to 100 scale) and 20 in experiment [6] (setting [13]). Besides, in experiment [6] (setting [12]), the “Veronica hedera plant response rating” value is given as 0. In addition, the “Plant response rating, Soybean” value was 20 in experiment [7] (Rate 140 g/ha), 25 in experiment [7] (Rate 280 g/ha), 30 in [7] (Rate 560 g/ha) and 45 in [7] (Rate 1120 g/ha). Besides, the “Plant response rating, Velvetleaf” value in experiment [8] (Rate 140 g/ha) was 0; in [8] (Rate 280 g/ha), 0; in experiment [8] (Rate 560 g/ha) it was 10; in experiment [8] (Rate 1120 g/ha) it was 70. Besides, the “Plant response rating, Sourgrass” value in [9] (Rate 16 g/ha) stood at 90. Moreover, the “Plant response rating, Russian thistle” value in [10] (Rate 62 g/ha, 0 to 100 scale) is given as 10; in experiment [10] (Rate 125 g/ha, 0 to 100 scale), 0; in experiment [10] (setting [13]) it was 0. Moreover, the “Russian thistle plant response rating” value in experiment [10] (setting [12]) came to 0.
Regarding `CC(C)N(C(=O)n1oc(=O)n(N(C)C)c1=O)c1ccccc1` [Compound 225], the “Plant response rating, Crabgrass” value amounted to 9 in experiment [1] (Postemergence, Rate 1000 g/ha) and 10 in experiment [1] (Pre-emergence, Rate 2000 g/ha).
For `Cc1cccc(C)c1-n1c(=O)on(C(=O)N(c2ccc(F)cc2)C(C)C)c1=O` [Compound 18], in [9] (Rate 64 g/ha), the “Plant response rating, Sourgrass” value is 100.
As for `Cc1cccc(Cl)c1-n1c(=O)on(C(=O)N(c2ccc(F)cc2)C(C)C)c1=O` [Compound 53], the “Plant response rating, Crabgrass” value was 6 in [1] (Postemergence, Rate 1000 g/ha) and 9 in experiment [1] (Pre-emergence, Rate 2000 g/ha).
For the compound `CC(C)N(C(=O)n1oc(=O)n(C(C)C)c1=O)c1ccc(Cl)cc1` [Compound 114], the results for the “Plant response rating, Downy brome” value in [3] (Rate 125 g/ha) and in [3] (setting [11]) were 0 and 30, respectively. Also, the “Plant response rating, Downy brortie” value in [3] (setting [16]) stood at 0. Besides, the “Plant response rating, Spring Barley” value in experiment [4] (Rate 125 g/ha, 0 to 100 scale) is recorded as 20; in experiment [4] (setting [16]) it was 30; in [4] (setting [13]) it was 35. The “Plant response rating, Annual bluegras” value in experiment [5] (setting [14]) is recorded as 50; in experiment [5] (Rate 250 g/ha, 0 to 100 scale), 50; in [5] (setting [15]), 60. Moreover, the “Plant response rating, Veronica hedera” value in experiment [6] (Rate 125 g/ha, 0 to 100 scale) was 10; in [6] (setting [16]) it was 50; in [6] (setting [13]), 70. For the same compound, the “Plant response rating, Russian thistle” value is on record as 0 in experiment [10] (Rate 125 g/ha, 0 to 100 scale); 0 in experiment [10] (setting [16]); 0 in experiment [10] (setting [13]). Moreover, the “Plant response rating, Crabgrass” value was found to be 7 in [1] (Postemergence, Rate 1000 g/ha) and 10 in [1] (Pre-emergence, Rate 2000 g/ha).
With `CCn1c(=O)on(C(=O)N(c2ccccc2)C(C)C)c1=O` [Compound 117], the “Plant response rating, Giant foxtail” value in [2] (Rate 140 g/ha) amounted to 0; in [2] (Rate 280 g/ha), 60; in experiment [2] (Rate 560 g/ha), 75; in experiment [2] (Rate 1120 g/ha), 80. The “Plant response rating, Soybean” value in experiment [7] (Rate 140 g/ha) is recorded as 10; in experiment [7] (Rate 280 g/ha), 35; in experiment [7] (Rate 560 g/ha) it was 40; in [7] (Rate 1120 g/ha) it was 60. Also, the results for the “Plant response rating, Velvetleaf” value in experiment [8] (Rate 140 g/ha), in experiment [8] (Rate 560 g/ha) and in experiment [8] (Rate 1120 g/ha) were 0, 20 and 60, respectively.

Source of the values: patent publication US6737383B1, “Herbicidal oxadiazolidines” (priority 1999, dated 2004).
